Reference: patent US6437184B1, “Oxime compounds, their use, and intermediates for their production” (Sumitomo Chemical Company, Limited, priority 1997, dated 2002)

Experiments:
[1] = tested on: Musca domestica; assay: Insecticidal test against Musca domestica; type: in vivo; conditions: 24 h, 500 ppm water dilution, 0.7 ml on filter paper with sucrose, female adults, after 1 day, read-out: mortality
Experimental: In the bottom of a polyethylene cup having a diameter of 5.5 cm was placed a piece of filter paper having the same size. A 200-fold water dilution (500 ppm) of a test compound formulation obtained according to Formulation Example 1 was added dropwise at a volume of 0.7 ml on the filter paper, and about 30 mg of sucrose as a diet was uniformly placed thereon. Ten female adults of houseflies (Musca domestica) were set free in the cup, and the cup was kept covered. After 1 day, the survival of the adults was determined to determine the mortality.

[2] = tested on: Cydia pomonella; assay: Insecticidal test against Cydia pomonella; type: in vivo; conditions: 168 h, 100 ppm water dilution, 0.2 ml on surface of artificial diet, eggs just before hatching, after 7 days
Experimental: A water dilution (100 ppm) of a test compound formulation obtained according to Formulation Example 1 was added dropwise at a volume of 0.2 ml and spread over the surface of an artificial diet having a weight of 3 g, which had been prepared in a 30 ml polyethylene cup. After air drying, placed in the cup was a piece of wax paper (about 2.5 cm square) having about 20 eggs which had been laid by Cydia pomonella and were just before hatching. Four pieces of such wax paper were used for each treatment. After 7 days, the mortality of the larvae was determined.

| SMILES | mortality at 500 µg/mL [1] [%] | mortality at 100 µg/mL [2] [%] |
| --- | --- | --- |
| CCON=CCOCCCCOc1c(Cl)cc(OCC=C(Cl)Cl)cc1Cl [(1), 4-(2,6-dichloro-4-(3,3-dichloro-2-propenyloxy)phenoxy)butyloxyacetaldehyde O-ethyloxime] | ≥ 80 | – |
| CCON=C(C)c1ccc(OCCCCOc2c(Cl)cc(OCC=C(Cl)Cl)cc2Cl)cc1 [(297), 4′-(4-(2,6-dichloro-4-(3,3-dichloro-2-propenyloxy)phenoxy)butyloxy)acetophenone O-ethyloxime] | – | ≥ 80 |
| CCON=CCOCCCCCOc1c(Cl)cc(OCC=C(Cl)Cl)cc1Cl [(159), 5-(2,6-dichloro-4-(3,3-dichloro-2-propenyloxy)phenoxy)pentyloxyacetaldehyde O-ethyloxime] | ≥ 80 | – |
| CCCON=Cc1cccc(COc2c(Cl)cc(OCC=C(Cl)Cl)cc2Cl)c1 [(379), 3-((2,6-dichloro-4-(3,3-dichloro-2-propenyloxy)phenoxy)methyl)benzaldehyde O-propyloxime] | – | ≥ 80 |
| CCCON=CCCCCOc1c(Cl)cc(OCC=C(Cl)Cl)cc1Cl [(18), 5-(2,6-dichloro-4-(3,3-dichloro-2-propenyloxy)phenoxy)pentanal O-n-propyloxime] | ≥ 80 | – |
| ClC(Cl)=CCOc1cc(Cl)c(OCc2cccc(C=NOCc3ccccc3)c2)c(Cl)c1 [(324), 3-(2,6-dichloro-4-(3,3-dichloro-2-propenyloxy)phenoxymethyl)benzaldehyde O-benzyloxime] | – | ≥ 80 |
| ClC(Cl)=CCOc1cc(Cl)c(OCCCCCON=C2CCCCC2)c(Cl)c1 [(566), cyclohexanone O-(5-(2,6-dichloro-4-(3,3-dichloro-2-propenyloxy)phenoxy)pentyl)oxime] | ≥ 80 | – |
| CC(=NOCCOc1c(Cl)cc(OCC=C(Cl)Cl)cc1Cl)c1ccc(C(F)(F)F)cc1 [(549), 4′-(trifluoromethyl)acetophenone O-(2-(2,6-dichloro-4-(3,3-dichloro-2-propenyloxy)phenoxy)ethyl)oxime] | – | ≥ 80 |
| CC(C)ON=CCOCCCCCOc1c(Cl)cc(OCC=C(Cl)Cl)cc1Cl [(153), 5-(2,6-dichloro-4-(3,3-dichloro-2-propenyloxy)phenoxy)pentyloxyacetaldehyde O-isopropyloxime] | ≥ 80 | – |
| C=CCON=CCCCCOc1c(Cl)cc(OCC=C(Cl)Cl)cc1Cl [(19), 5-(2,6-dichloro-4-(3,3-dichloro-2-propenyloxy)phenoxy)pentanal O-(2-propenyl)oxime] | ≥ 80 | – |
| ClC(Cl)=CCON=Cc1cccc(COc2c(Cl)cc(OCC=C(Cl)Cl)cc2Cl)c1 [(323), 3-(2,6-dichloro-4-(3,3-dichloro-2-propenyloxy)phenoxymethyl)benzaldehyde O-(3,3-dichloro-2-propenyl)oxime] | – | ≥ 80 |
| COc1ccc(CON=CCCCCOc2c(Cl)cc(OCC=C(Cl)Cl)cc2Cl)cc1 [(22), 5-(2,6-dichloro-4-(3,3-dichloro-2-propenyloxy)phenoxy)pentanal O-(4-methoxybenzyl)oxime] | ≥ 80 | – |
| CON=CCOCCCCCOc1c(Cl)cc(OCC=C(Cl)Cl)cc1Cl [(158), 5-(2,6-dichloro-4-(3,3-dichloro-2-propenyloxy)phenoxy)pentyloxyacetaldehyde O-methyloxime] | ≥ 80 | – |
| CON=CCOCCCCOc1c(Cl)cc(OCC=C(Cl)Cl)cc1Cl [(7), 4-(2,6-dichloro-4-(3,3-dichloro-2-propenyloxy)phenoxy)butyloxyacetaldehyde O-methyloxime] | ≥ 80 | – |
| CCCCON=Cc1ccc(COc2c(Cl)cc(OCC=C(Cl)Cl)cc2Cl)cc1 [(376), 4-((2,6-dichloro-4-(3,3-dichloro-2-propenyloxy)phenoxy)methyl)benzaldehyde O-butyloxime] | ≥ 80 | – |
| C=CCON=CCOCCCCOc1c(Cl)cc(OCC=C(Cl)Cl)cc1Cl [(4), 4-(2,6-dichloro-4-(3,3-dichloro-2-propenyloxy)phenoxy)butyloxyacetaldehyde O-(2-propenyl)oxime] | ≥ 80 | – |
| CCCCOCC=NOCCCCCOc1c(Cl)cc(OCC=C(Cl)Cl)cc1Cl [(565), n-butyloxyacetaldehyde O-(5-(2,6-dichloro-4-(3,3-dichloro-2-propenyloxy)phenoxy)pentyl)oxime] | ≥ 80 | – |
| CCON=C(C)COCCCCCOc1c(Cl)cc(OCC=C(Cl)Cl)cc1Cl [(176), 5-(2,6-dichloro-4-(3,3-dichloro-2-propenyloxy)phenoxy)pentyloxyacetone O-ethyloxime] | ≥ 80 | – |
| CC(C)=NOCCCCCOc1c(Cl)cc(OCC=C(Cl)Cl)cc1Cl [(560), acetone O-(5-(2,6-dichloro-4-(3,3-dichloro-2-propenyloxy)phenoxy)pentyl)oxime] | ≥ 80 | – |
| CC(C)CON=CCOCCCCCOc1c(Cl)cc(OCC=C(Cl)Cl)cc1Cl [(155), 5-(2,6-dichloro-4-(3,3-dichloro-2-propenyloxy)phenoxy)pentyloxyacetaldehyde O-isobutyloxime] | ≥ 80 | – |
| CC(COCCCCCOc1c(Cl)cc(OCC=C(Cl)Cl)cc1Cl)=NOCc1ccccc1 [(175), 5-(2,6-dichloro-4-(3,3-dichloro-2-propenyloxy)phenoxy)pentyloxyacetone O-benzyloxime] | ≥ 80 | – |
| C=CCON=Cc1cccc(COc2c(Cl)cc(OCC=C(Cl)Cl)cc2Cl)c1 [(330), 3-(2,6-dichloro-4-(3,3-dichloro-2-propenyloxy)phenoxymethyl)benzaldehyde O-allyl oxime] | ≥ 80 | – |
| CCON=CCCCOc1c(Cl)cc(OCC=C(Cl)Cl)cc1Cl [(28), 4-(2,6-dichloro-4-(3,3-dichloro-2-propenyloxy)phenoxy)butanal O-ethyloxime] | ≥ 80 | – |
| CCCCCC=NOCCCCCCOc1c(Cl)cc(OCC=C(Cl)Cl)cc1Cl [(551), hexanal O-(6-(2,6-dichloro-4-(3,3-dichloro-2-propenyloxy)phenoxy)hexyl)oxime] | ≥ 80 | – |
| CON=CCCCOc1c(Cl)cc(OCC=C(Cl)Cl)cc1Cl [(29), 4-(2,6-dichloro-4-(3,3-dichloro-2-propenyloxy)phenoxy)butanal O-methyloxime] | ≥ 80 | – |
| CC(=NOCCCCOc1c(Cl)cc(OCC=C(Cl)Cl)cc1Cl)c1ccccn1 [(689), methyl 2-pyridyl ketone O-(4-(2,6-dichloro-4-(3,3-dichloro-2-propenyloxy)phenoxy)butyl)oxime] | ≥ 80 | – |
| CON=Cc1ccc(OCCCOc2c(Cl)cc(OCC=C(Cl)Cl)cc2Cl)cc1 [(305), 4-(3-(2,6-dichloro-4-(3,3-dichloro-2-propenyloxy)phenoxy)propyloxy)benzaldehyde O-methyloxime] | ≥ 80 | – |
| ClC(Cl)=CCOc1cc(Cl)c(OCCCCC=NOCC(Cl)(Cl)Cl)c(Cl)c1 [(170), 5-(2,6-dichloro-4-(3,3-dichloro-2-propenyloxy)phenoxy)pentanal O-(2,2,2-trichloroethyl)oxime] | ≥ 80 | – |
| CCON=Cc1ccc(OCCOc2c(Cl)cc(OCC=C(Cl)Cl)cc2Cl)cc1 [(287), 4-(2-(2,6-dichloro-4-(3,3-dichloro-2-propenyloxy)phenoxy)-ethoxy)benzaldehyde O-ethyloxime] | ≥ 80 | – |
| CC=NOCCCCCOc1c(Cl)cc(OCC=C(Cl)Cl)cc1Cl [(541), acetaldehyde O-(5-(2,6-dichloro-4-(3,3-dichloro-2-propenyloxy)phenoxy)pentyl)oxime] | ≥ 80 | – |
